Source: the supplement of paper PMC10307832

How the values were obtained:
Assay in all cases: relative viability (nuclei count vs DMSO), 5 days (fraction); higher = more cells survive
SW 900 = tested on: SW 900
In short: (§1)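 Nuclei were stained with Hoechst during a one-step fixation (final 0.05% Triton X-100, 1% formaldehyde, 1 ug/ml Hoechst) carried out 5 days after dosing, then counted on 4× images. The cells, lung cancer lines in 1536-well plates, had been dosed by pin tool the day after seeding with one drug alone or a fixed anchor-drug dose plus five library-drug doses (not always all listed) in √10 steps. Relative viability is the nuclei count in treated wells divided by that in vehicle wells, and each value is the median of duplicate plates.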

NCI-H2342 = tested on: NCI-H2342
In short: as §1

NCI-H1648 = tested on: NCI-H1648
In short: as §1

NCI-H522 = tested on: NCI-H522
In short: as §1

NCI-H1623 = tested on: NCI-H1623
In short: as §1

NCI-H1563 = tested on: NCI-H1563
In short: as §1

EBC-1 = tested on: EBC-1
In short: as §1

NCI-H1703 = tested on: NCI-H1703
In short: as §1

Calu-6 = tested on: Calu-6
In short: as §1

NCI-H1299 = tested on: NCI-H1299
In short: as §1

A549 = tested on: A549
In short: as §1

IA-LM = tested on: IA-LM
In short: as §1

Cc1cnc(-c2cnc(NCCNc3ccc(C#N)cn3)nc2-c2ccc(Cl)cc2Cl)[nH]1 + Cc1cc(Nc2cc(N3CCN(C)CC3)nc(Sc3ccc(NC(=O)C4CC4)cc3)n2)n[nH]1 [Tozasertib] (partner 0.1 µM)
relative viability (SW 900; first compound 0.08 µM): 0.667 | relative viability (SW 900; first compound 0.253 µM): 0.511 | relative viability (SW 900; first compound 0.8 µM): 0.439 | relative viability (SW 900; first compound 2.53 µM): 0.415 | relative viability (NCI-H2342; first compound 0.08 µM): 0.519 | relative viability (NCI-H2342; first compound 0.253 µM): 0.513 | relative viability (NCI-H2342; first compound 0.8 µM): 0.507 | relative viability (NCI-H2342; first compound 2.53 µM): 0.505 | relative viability (NCI-H1648; first compound 0.08 µM): 0.487 | relative viability (NCI-H1648; first compound 0.253 µM): 0.502 | relative viability (NCI-H1648; first compound 0.8 µM): 0.465 | relative viability (NCI-H1648; first compound 2.53 µM): 0.52 | relative viability (NCI-H522; first compound 0.08 µM): 0.629 | relative viability (NCI-H522; first compound 0.8 µM): 0.506 | relative viability (NCI-H522; first compound 2.53 µM): 0.591 | relative viability (NCI-H1623; first compound 0.08 µM): 0.477 | relative viability (NCI-H1623; first compound 0.253 µM): 0.426 | relative viability (NCI-H1623; first compound 0.8 µM): 0.414 | relative viability (NCI-H1623; first compound 2.53 µM): 0.417

O=c1[nH]c2ccccc2n1C1CCN(CCCC(c2ccc(F)cc2)c2ccc(F)cc2)CC1 [Pimozide] + Cc1cc(Nc2cc(N3CCN(C)CC3)nc(Sc3ccc(NC(=O)C4CC4)cc3)n2)n[nH]1 [Tozasertib] (partner 0.1 µM)
relative viability (SW 900; first compound 0.08 µM): 0.633 | relative viability (SW 900; first compound 0.253 µM): 0.606 | relative viability (SW 900; first compound 0.8 µM): 0.54 | relative viability (SW 900; first compound 2.53 µM): 0.618 | relative viability (SW 900; first compound 8 µM): 0.563 | relative viability (NCI-H2342; first compound 0.08 µM): 0.51 | relative viability (NCI-H2342; first compound 0.253 µM): 0.517 | relative viability (NCI-H2342; first compound 0.8 µM): 0.505 | relative viability (NCI-H2342; first compound 2.53 µM): 0.488 | relative viability (NCI-H2342; first compound 8 µM): 0.576 | relative viability (NCI-H1648; first compound 0.08 µM): 0.574 | relative viability (NCI-H1648; first compound 0.253 µM): 0.398 | relative viability (NCI-H1648; first compound 0.8 µM): 0.353 | relative viability (NCI-H1648; first compound 8 µM): 0.53 | relative viability (NCI-H522; first compound 0.08 µM): 0.509 | relative viability (NCI-H522; first compound 0.253 µM): 0.47 | relative viability (NCI-H522; first compound 0.8 µM): 0.573 | relative viability (NCI-H522; first compound 2.53 µM): 0.485 | relative viability (NCI-H522; first compound 8 µM): 0.525 | relative viability (NCI-H1623; first compound 0.253 µM): 0.439 | relative viability (NCI-H1623; first compound 0.8 µM): 0.375 | relative viability (NCI-H1623; first compound 2.53 µM): 0.456 | relative viability (NCI-H1623; first compound 8 µM): 0.39

O=C(O)CCCCC(CCSCc1ccccc1)SCc1ccccc1 (stereo not given) [CPI-613] + COc1cccc2cc(-c3nc([C@H]4CC[C@H](C(=O)O)CC4)n4ncnc(N)c34)[nH]c12 [OSI-027] (partner 0.5 µM)
relative viability (SW 900; first compound 5 µM): 0.44 | relative viability (SW 900; first compound 15.81 µM): 0.547 | relative viability (SW 900; first compound 50 µM): 0.65 | relative viability (SW 900; first compound 158.11 µM): 0.245 | relative viability (SW 900; first compound 500 µM): 0.0283 | relative viability (NCI-H1563; first compound 5 µM): 0.76 | relative viability (NCI-H1563; first compound 15.81 µM): 0.652 | relative viability (NCI-H1563; first compound 50 µM): 0.814 | relative viability (NCI-H1563; first compound 158.11 µM): 0.52 | relative viability (NCI-H1563; first compound 500 µM): 0.223 | relative viability (NCI-H2342; first compound 5 µM): 0.568 | relative viability (NCI-H2342; first compound 15.81 µM): 0.572 | relative viability (NCI-H2342; first compound 50 µM): 0.643 | relative viability (NCI-H2342; first compound 158.11 µM): 0.552 | relative viability (NCI-H2342; first compound 500 µM): 0.643 | relative viability (NCI-H1648; first compound 5 µM): 0.273 | relative viability (NCI-H1648; first compound 15.81 µM): 0.241 | relative viability (NCI-H1648; first compound 50 µM): 0.22 | relative viability (NCI-H1648; first compound 500 µM): 0.203 | relative viability (NCI-H522; first compound 5 µM): 0.706 | relative viability (NCI-H522; first compound 15.81 µM): 0.747 | relative viability (NCI-H522; first compound 50 µM): 0.7 | relative viability (NCI-H522; first compound 158.11 µM): 0.612 | relative viability (NCI-H522; first compound 500 µM): 0.467 | relative viability (NCI-H1623; first compound 5 µM): 0.431 | relative viability (NCI-H1623; first compound 15.81 µM): 0.436 | relative viability (NCI-H1623; first compound 50 µM): 0.438 | relative viability (NCI-H1623; first compound 158.11 µM): 0.368 | relative viability (NCI-H1623; first compound 500 µM): 0.408

O=C(O)CCCCC(CCSCc1ccccc1)SCc1ccccc1 (stereo not given) [CPI-613] + COc1cc2c(Oc3ccc(NC(=O)C4(C(=O)Nc5ccc(F)cc5)CC4)cc3F)ccnc2cc1OCCCN1CCOCC1 [Foretinib] (partner 0.25 µM)
relative viability (SW 900; first compound 5 µM): 0.743 | relative viability (SW 900; first compound 15.81 µM): 0.776 | relative viability (SW 900; first compound 50 µM): 0.792 | relative viability (SW 900; first compound 158.11 µM): 0.418 | relative viability (SW 900; first compound 500 µM): 0.0443 | relative viability (NCI-H1563; first compound 5 µM): 0.957 | relative viability (NCI-H1563; first compound 15.81 µM): 0.896 | relative viability (NCI-H1563; first compound 50 µM): 0.892 | relative viability (NCI-H1563; first compound 158.11 µM): 0.665 | relative viability (NCI-H1563; first compound 500 µM): 0.231 | relative viability (EBC-1; first compound 5 µM): 0.0958 | relative viability (EBC-1; first compound 15.81 µM): 0.0971 | relative viability (EBC-1; first compound 50 µM): 0.0899 | relative viability (EBC-1; first compound 158.11 µM): 0.0957 | relative viability (EBC-1; first compound 500 µM): 0.0975 | relative viability (NCI-H2342; first compound 5 µM): 1.04 | relative viability (NCI-H2342; first compound 15.81 µM): 0.978 | relative viability (NCI-H2342; first compound 50 µM): 1.04 | relative viability (NCI-H2342; first compound 158.11 µM): 1.12 | relative viability (NCI-H2342; first compound 500 µM): 1.05 | relative viability (NCI-H1703; first compound 5 µM): 0.442 | relative viability (NCI-H1703; first compound 15.81 µM): 0.353 | relative viability (NCI-H1703; first compound 158.11 µM): 0.331 | relative viability (NCI-H1703; first compound 500 µM): 0.33 | relative viability (Calu-6; first compound 5 µM): 0.872 | relative viability (Calu-6; first compound 15.81 µM): 0.848 | relative viability (Calu-6; first compound 50 µM): 0.865 | relative viability (Calu-6; first compound 158.11 µM): 0.769 | relative viability (Calu-6; first compound 500 µM): 0.675 | relative viability (NCI-H1299; first compound 5 µM): 1.03 | relative viability (NCI-H1299; first compound 15.81 µM): 1.04 | relative viability (NCI-H1299; first compound 50 µM): 1.1 | relative viability (NCI-H1299; first compound 158.11 µM): 1.08 | relative viability (NCI-H1299; first compound 500 µM): 1.14 | relative viability (A549; first compound 5 µM): 0.942 | relative viability (A549; first compound 15.81 µM): 0.829 | relative viability (A549; first compound 50 µM): 0.848 | relative viability (A549; first compound 158.11 µM): 0.944 | relative viability (A549; first compound 500 µM): 0.641 | relative viability (IA-LM; first compound 5 µM): 1.12 | relative viability (IA-LM; first compound 15.81 µM): 1.16 | relative viability (IA-LM; first compound 50 µM): 1.13 | relative viability (IA-LM; first compound 158.11 µM): 0.933 | relative viability (IA-LM; first compound 500 µM): 0.872 | relative viability (NCI-H1623; first compound 5 µM): 0.845 | relative viability (NCI-H1623; first compound 15.81 µM): 0.921 | relative viability (NCI-H1623; first compound 50 µM): 0.972 | relative viability (NCI-H1623; first compound 158.11 µM): 0.59 | relative viability (NCI-H1623; first compound 500 µM): 0.831
